Data reported in publication PMC5472784, “Pyrazinamide and derivatives block ethylene biosynthesis by inhibiting ACC oxidase” (Nature Communications, 2017).
Like-named read-outs stand apart in the source and are kept apart here.

Tests used:
[1] = target: T1, AtACO2 (Arabidopsis thaliana, UniProt Q41931); assay: ACO enzymatic activity assay and kinetic analysis (ethylene by GC-FID); type: biochemical
[2] = target: T1, AtACO2; assay: Isothermal titration calorimetry; type: binding; conditions: ITC, 25 °C, read-out: dissociation constant (KD), AtACO2
Method: (§1) ITC experiments were performed using a MicroCal iTC200 (GE Healthcare) at 25 °C. Small molecules and proteins were in the same buffer containing 25 mM Bis–Tris (pH 6.0), 150 mM NaCl, 0.1 mM ZnCl2 (or 0.2 mM FeSO4 for POA and AtACO2). The concentration of small molecules in the syringe was 1 mM, and the concentration of proteins in the cell was 90 μM. Data were analysed with a one-site model using Origin 7.0 (OriginLab).

[3] = test system: ethylene production of Arabidopsis seedlings; assay: Measurement of ethylene production of seedlings (GC-FID); type: in vivo, Arabidopsis thaliana; conditions: for ethylene production in Arabidopsis seedlings: Supplementary Fig. 10
Method: Ethylene production was determined as follows: 30 3-day-old etiolated or 5-day-old green seedlings of Col-0, eto1-2 or other mutants were selected randomly and sealed in a 30 ml vial containing 3 ml liquid MS medium supplemented with indicated treatments. The vial was sealed with a rubber stopper for 24 h at 22 °C prior to ethylene sampling. A 250 μl sample of the headspace gas was withdrawn using a gas-tight syringe from each chamber through the septum stopper, and injected into a gas chromatograph (Agilent 6890NGC, Agilent Technologies, USA) that was equipped with a HP-PLOTQ column (40 m × 530 μm × 40 μm) and a flame ionization detector (FID)[44]. Separations were carried out at 60 °C using N2 as the carrier gas. The area of the ethylene peak was integrated with Agilent Chemstation and results were expressed as the average relative ethylene production (%) of each treatment.

[4] = test system: Arabidopsis PSB-D suspension cultured cells; assay: Ethylene production of suspension cultured cells; type: cell-based, Arabidopsis thaliana
[5] = target: T1, AtACO2; assay: Fragmentation (stability) of purified AtACO2; conditions: 200 μM POA, 30 °C
Method: Purified AtACO2 was incubated with or without 200 μM POA at 30 °C in a buffer containing 50 mM MOPS, pH 7.2, 10% glycerol (v/v), 5 mM ascorbic acid, 20 mM NaHCO3, 0.02 mM FeSO4, 1 mM ACC and 1 mM DTT. At the indicated time point, the reaction was terminated by the addition of SDS-PAGE loading buffer followed by boiling. Fragmentation of AtACO2 was visualized on a SDS-PAGE gel.

[6] = test system: Arabidopsis etiolated seedlings (Col-0, eto1-2, ctr1-1, ein2-5); assay: Ethylene response phenotype of 3-day-old etiolated seedlings (hypocotyl and root length, root hairs, root cells); type: in vivo, Arabidopsis thaliana; conditions: 3-day-old etiolated eto1-2 seedlings, MS medium with compound (50 μM shown)
[7] = test system: dioxygenase for auxin oxidation (DAO); assay: Isothermal titration calorimetry; type: binding, Arabidopsis thaliana; conditions: ITC
Method: as §1

[8] = target: T2, gibberellin C2 oxidase 2 (GA2OX2) (Arabidopsis thaliana, UniProt Q9XFR9); assay: Isothermal titration calorimetry; type: binding; conditions: ITC
T2 construct: GST; made in house
T2 sequence (Q9XFR9 1-341): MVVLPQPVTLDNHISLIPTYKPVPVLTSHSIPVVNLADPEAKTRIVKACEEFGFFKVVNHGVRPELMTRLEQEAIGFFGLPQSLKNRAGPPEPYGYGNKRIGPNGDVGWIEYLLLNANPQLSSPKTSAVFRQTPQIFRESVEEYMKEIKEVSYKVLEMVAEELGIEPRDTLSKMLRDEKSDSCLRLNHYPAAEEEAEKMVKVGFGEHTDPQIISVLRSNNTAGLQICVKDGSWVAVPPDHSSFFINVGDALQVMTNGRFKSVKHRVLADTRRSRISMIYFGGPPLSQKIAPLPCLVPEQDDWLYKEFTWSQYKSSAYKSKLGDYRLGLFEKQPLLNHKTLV
Method: as §1

[9] = target: T3, anthocyanidin synthase (ANS) (Arabidopsis thaliana, UniProt Q96323); assay: Isothermal titration calorimetry; type: binding; conditions: ITC
T3 construct: GST; made in house
Method: as §1

[10] = target: the other four ACO proteins in Arabidopsis (AtACO1, AtACO3, AtACO4 and AtACO5); assay: ACO kinetic analysis, span over the other four ACO proteins; type: biochemical, Arabidopsis thaliana; conditions: span over AtACO1, 3, 4, 5
Method: (§2) The activity was performed following previously published protocol. The reaction mixture contains 50 mM MOPS, pH 7.4, 10% glycerol (v/v), 5 mM ascorbic acid, 20 mM NaHCO3, 0.02 mM FeSO4, 1 mM DTT, and different amounts of ACC and PZA/POA as indicated. The reaction was initiated by the addition of 5 μg ACO protein and immediately sealed with a rubber stopper. After incubation at 30 °C for 30 min with shaking, 100 μl of gas product was withdrawn by syringe from the headspace of the vial and injected into the GC-FID. The area of the ethylene peak was integrated with Agilent Chemstation and results were analysed using the program GraphPad Prism (version 5.01; GraphPad Software Inc., San Diego, CA, USA). The initial velocities were plotted against starting ACC concentrations in a double-reciprocal manner and the kinetic parameters were deduced.

[11] = target: T4, AtACO5 (Arabidopsis thaliana, UniProt Q0WPW4); assay: ACO enzymatic activity assay, kinetic analysis; type: biochemical; conditions: varying ACC, 200 μM POA, unit inferred
T4 sequence (Q0WPW4 1-307): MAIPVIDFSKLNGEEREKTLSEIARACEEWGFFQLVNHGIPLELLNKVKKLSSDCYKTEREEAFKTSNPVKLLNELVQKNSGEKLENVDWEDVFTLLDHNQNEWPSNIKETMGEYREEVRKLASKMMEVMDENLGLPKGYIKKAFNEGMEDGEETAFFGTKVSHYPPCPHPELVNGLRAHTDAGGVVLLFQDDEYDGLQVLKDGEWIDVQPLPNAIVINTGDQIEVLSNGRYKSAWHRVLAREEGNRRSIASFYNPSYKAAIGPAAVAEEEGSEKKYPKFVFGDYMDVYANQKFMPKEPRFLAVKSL
Method: as §2

[12] = target: AtACO4 (Arabidopsis thaliana, UniProt Q06588); assay: ACO enzymatic activity assay, kinetic analysis; type: biochemical; conditions: varying ACC, 200 μM POA, unit inferred
Method: as §2

[13] = target: T5, AtACO1 (Arabidopsis thaliana, UniProt Q9ZUN4); assay: ACO enzymatic activity assay, kinetic analysis; type: biochemical; conditions: varying ACC, 200 μM POA, unit inferred
T5 sequence (Q9ZUN4 1-310): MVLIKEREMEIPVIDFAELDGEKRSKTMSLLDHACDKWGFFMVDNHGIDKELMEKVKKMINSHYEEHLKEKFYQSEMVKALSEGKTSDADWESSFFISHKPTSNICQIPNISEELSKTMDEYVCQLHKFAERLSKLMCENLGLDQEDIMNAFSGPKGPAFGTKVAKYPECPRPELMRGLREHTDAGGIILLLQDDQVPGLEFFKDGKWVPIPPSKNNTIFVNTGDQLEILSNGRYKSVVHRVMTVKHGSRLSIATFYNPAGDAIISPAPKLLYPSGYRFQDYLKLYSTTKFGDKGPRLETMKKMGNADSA
Method: as §2

[14] = target: AtACO3 (Arabidopsis thaliana, UniProt O65378); assay: ACO enzymatic activity assay, kinetic analysis; type: biochemical; conditions: varying ACC, 200 μM POA, unit inferred
Method: as §2

T1 sequence (Q41931 1-303): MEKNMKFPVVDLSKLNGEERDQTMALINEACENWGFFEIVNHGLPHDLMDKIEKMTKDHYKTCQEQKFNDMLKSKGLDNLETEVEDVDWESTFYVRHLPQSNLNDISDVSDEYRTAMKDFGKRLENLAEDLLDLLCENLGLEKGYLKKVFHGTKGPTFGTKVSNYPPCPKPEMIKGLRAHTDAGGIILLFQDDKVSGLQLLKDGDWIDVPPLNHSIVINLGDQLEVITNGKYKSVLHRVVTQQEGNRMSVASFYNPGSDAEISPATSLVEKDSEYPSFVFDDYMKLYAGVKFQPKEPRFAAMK
Chain of AtACO3 (O65378 whole entry): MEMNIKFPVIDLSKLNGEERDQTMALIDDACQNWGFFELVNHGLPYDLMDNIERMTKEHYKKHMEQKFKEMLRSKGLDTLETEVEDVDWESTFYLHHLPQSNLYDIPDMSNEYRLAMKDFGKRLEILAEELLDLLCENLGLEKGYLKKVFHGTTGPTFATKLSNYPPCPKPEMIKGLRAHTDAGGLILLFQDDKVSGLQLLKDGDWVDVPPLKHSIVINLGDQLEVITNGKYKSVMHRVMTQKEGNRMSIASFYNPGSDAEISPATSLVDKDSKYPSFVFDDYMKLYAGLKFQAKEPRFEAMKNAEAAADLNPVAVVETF
Chain of AtACO4 (Q06588 whole entry): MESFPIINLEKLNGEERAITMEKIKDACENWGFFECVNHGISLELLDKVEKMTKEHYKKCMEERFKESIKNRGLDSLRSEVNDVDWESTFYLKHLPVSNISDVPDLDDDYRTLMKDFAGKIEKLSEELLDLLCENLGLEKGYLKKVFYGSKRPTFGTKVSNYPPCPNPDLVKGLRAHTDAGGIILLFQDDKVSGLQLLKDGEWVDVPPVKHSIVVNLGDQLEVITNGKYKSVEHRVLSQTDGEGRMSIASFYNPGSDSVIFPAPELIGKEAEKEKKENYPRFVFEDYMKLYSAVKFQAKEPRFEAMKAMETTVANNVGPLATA
T3 sequence (Q96323 whole entry): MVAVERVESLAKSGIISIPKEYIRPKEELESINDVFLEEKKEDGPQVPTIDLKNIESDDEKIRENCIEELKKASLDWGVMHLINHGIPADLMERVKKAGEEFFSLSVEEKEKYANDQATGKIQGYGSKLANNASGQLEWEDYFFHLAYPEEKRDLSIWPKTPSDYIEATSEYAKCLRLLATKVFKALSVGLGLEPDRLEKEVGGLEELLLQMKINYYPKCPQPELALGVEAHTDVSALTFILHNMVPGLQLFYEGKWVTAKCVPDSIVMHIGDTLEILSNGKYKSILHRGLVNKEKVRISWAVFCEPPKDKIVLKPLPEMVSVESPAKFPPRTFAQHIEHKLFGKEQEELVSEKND

Q: For `O=C(O)c1ccccn1` [2-PA, 2-picolinic acid], which “inhibition effect on AtACO2 compared with POA” value ([1]; 200 μM) is on record?
A: stronger than that of POA

Q: And the “relative AtACO2 activity treated with POA derivatives” value ([1]; 200 μM)?
A: directly inhibited

Q: And the Kd ([2]; in the presence of Zn2+)?
A: 2.8 µM

Q: And the “ethylene production in Arabidopsis seedlings” value [3]?
A: remarkably inhibited

Q: And the “ethylene production in suspension cultured cells” value [4]?
A: remarkably inhibited

Q: Which “ethylene production in Arabidopsis seedlings” value [3] does the source give for `NC(=O)c1ccccn1` [2-picolinamide] here?
A: remarkably inhibited

Q: And the “ethylene production in suspension cultured cells” value [4]?
A: remarkably inhibited

Q: `CC(C)(N)C(=O)O` [AIB, α-aminoisobutyric acid, reference compound] was tested. Which “inhibition effect on AtACO2 compared with POA” value ([1]; 200 μM) did it give?
A: much weaker inhibition effect than POA

Q: How did the Ki ([1]; Lineweaver–Burk plots, varying ACC, 100, 200 or 300 μM POA, error represents s.d., read-out: Ki, AtACO2 inhibition) turn out when `O=C(O)c1cnccn1` [POA, pyrazinecarboxylic acid] was run?
A: 89.8 ± 18.3 µM

Q: And the “mode of inhibition of ACO” value ([1]; double-reciprocal plots)?
A: competitive inhibitor

Q: And the IC50 ([1]; recombinant AtACO2, ethylene by GC-FID, read-out: IC50, inhibition of AtACO2 activity)?
A: 72.1 ± 1.11 µM

Q: And the “stability of purified AtACO2 protein” value [5]?
A: did not obviously change

Q: What about the “short-root and short-hypocotyl phenotype of eto1-2” value [6] of the same compound?
A: specifically suppressed

Q: And the “interaction with DAO” value [7]?
A: no interaction

Q: And the “interaction with GA2OX2” value [8]?
A: no interaction

Q: And the “interaction with ANS” value [9]?
A: no interaction

Q: What about the Kd ([2]; in the presence of Fe2+) of the same compound?
A: 14.8 µM

Q: What about the Kd ([2]; in the presence of Zn2+) of the same compound?
A: 10.2 µM

Q: What about the Ki [10] of the same compound?
A: 187 to 722 µM

Q: What about the “ACC-induced ethylene production of Col-0 seedlings” value ([3]; 100 μM ACC, 500 μM compound, 24 h) of the same compound?
A: inhibited

Q: And the Ki [11]?
A: 722 ± 536 µM

Q: What about the Ki [12] of the same compound?
A: 195 ± 73.3 µM

Q: And the Ki [13]?
A: 317 ± 90.4 µM

Q: And the Ki [14]?
A: 187 ± 54.5 µM
